Measurements taken from patent US20070072897A1, “Phenylaminopropanol derivatives and methods of their use” (Wyeth, priority 2005, published 2007).
Structures can show the parent of a compound that is named as a salt.

Tests used:
human hNET = target: T1, human hNET (Homo sapiens, UniProt P23975); assay: Norepinephrine (NE) uptake assay in MDCK-Net6 cells; format: cell-based; details: [3H]NE uptake; for inhibition at 1 µM: MDCK-Net6 cells, read-out: hNET Percentage inhibition at 1 μM; for EC50: MDCK-Net6 cells stably transfected with hNET
T1 construct: expressed in transfected cells; host or cells: MDCK (MDCK-Net6)

human 5-HT2A receptor = target: T2, human 5-HT2A receptor (Homo sapiens, UniProt P28223); assay: 5-HT2A FLIPR assay (calcium response to DOI) in CHO cells; format: cell-based; details: for inhibition at 1 µM: CHO, read-out: 5-HT2A Percentage inhibition at 1 μM; for IC50: antagonist inhibition of 3 nM DOI stimulation, CHO cells, FLIPR
T2 construct: expressed in transfected cells; host or cells: CHO
Protocol: Cells are washed with PBS without Ca^2+ and 3 mL Trypsin is added to dissociate cells. After 3 minute incubation, 7 mL Trypsin Neutralizing Solution is added. Cells are then aspirated from flask and mixed in a 50 mL conical tube. 10 μL sample is used to count cells on a hemacytometer. […] Two 96-well drug plates are prepared for each cell plate. Plate 1 will contain compounds to be tested and plate 2 will contain the agonist DOI (3 nM) to activate a calcium response. Specific details of compound preparation are listed below. […] Outside wells are not used due to an edge effect seen in these cells. The reference compounds DOI and 5-HT are used as standard 5HT agonists. […] Standards for plate one are Vehicle, 1 μM DOI, and 3 nM MDL. […] On the day of the assay, test compound solutions of appropriate concentrations are diluted in assay buffer as described for single concentration testing. This procedure is followed to ensure that the solvent concentration is consistent across dilutions. The typical concentration testing range of compounds is 10^−10—10^−5 M in half log or full log increments. A 10 μM DOI stock is diluted to 60 nM and added to the respective wells. The pipeting station of the FLIPR will make an additional 20-fold dilution for a final concentration of 3 nM. Standards for this plate include Vehicle and 3 nM DOI. Contents of dye vial (Molecular Devices #R8090) are dissolved in 100 mL of 1×HBSS supplemented with 20 mM HEPES. Aliquots can be frozen at −20° C. for up to one week for future use. On the day of assay, dye is thawed and diluted to half concentration. […] Cells are allowed to adhere for 24 hours in 96-well plates. […] Cell, compound and DOI plates are loaded into the FLIPR machine. The baseline fluorescence level is read once every second for 1 minute. Compound (10 μL) is transferred from the compound plate to the cells and the fluorescence level recorded every 6 seconds for 2 minutes to determine any agonist activity. Baseline fluorescence is recorded again every second for 10 seconds. For antagonist determination, 10 μL of 3 nM DOI is transferred from the DOI plate to the cells and the fluorescence level recorded every 6 seconds for 5 minutes. The pipetting unit of the FLIPR machine completes all transfers. […] The data are log transformed prior to analysis.

T2 sequence (P28223 whole entry): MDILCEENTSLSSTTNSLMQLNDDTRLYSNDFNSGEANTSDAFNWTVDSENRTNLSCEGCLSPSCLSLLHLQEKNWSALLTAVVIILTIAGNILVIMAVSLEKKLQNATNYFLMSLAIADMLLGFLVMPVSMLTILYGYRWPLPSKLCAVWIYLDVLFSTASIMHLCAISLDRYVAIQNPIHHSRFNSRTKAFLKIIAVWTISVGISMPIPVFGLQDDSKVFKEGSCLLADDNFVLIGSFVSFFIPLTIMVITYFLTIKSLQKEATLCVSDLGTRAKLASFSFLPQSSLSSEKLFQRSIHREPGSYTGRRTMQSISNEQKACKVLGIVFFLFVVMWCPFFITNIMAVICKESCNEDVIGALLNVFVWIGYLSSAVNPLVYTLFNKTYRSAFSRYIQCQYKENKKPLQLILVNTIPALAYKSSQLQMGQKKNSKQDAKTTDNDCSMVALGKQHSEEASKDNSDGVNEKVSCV
T1 sequence (P23975 whole entry): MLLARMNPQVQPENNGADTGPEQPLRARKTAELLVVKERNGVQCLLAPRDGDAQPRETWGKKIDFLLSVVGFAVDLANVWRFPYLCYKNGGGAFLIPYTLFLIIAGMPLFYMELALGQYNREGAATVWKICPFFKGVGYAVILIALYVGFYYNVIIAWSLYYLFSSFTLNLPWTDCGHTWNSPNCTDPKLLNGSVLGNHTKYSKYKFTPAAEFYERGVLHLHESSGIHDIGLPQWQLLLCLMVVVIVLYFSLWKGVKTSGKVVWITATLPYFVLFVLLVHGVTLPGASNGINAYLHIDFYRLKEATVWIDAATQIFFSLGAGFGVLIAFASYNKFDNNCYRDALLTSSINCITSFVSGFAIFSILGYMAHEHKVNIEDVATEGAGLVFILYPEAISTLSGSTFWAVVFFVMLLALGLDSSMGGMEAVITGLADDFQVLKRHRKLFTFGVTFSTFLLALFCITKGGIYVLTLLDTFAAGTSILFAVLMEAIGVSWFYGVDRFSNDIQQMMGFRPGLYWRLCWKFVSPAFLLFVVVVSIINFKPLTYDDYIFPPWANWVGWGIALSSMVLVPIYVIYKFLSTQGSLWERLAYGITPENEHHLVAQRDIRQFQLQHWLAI

## CNC[C@@H](O)[C@H](c1ccccc1)n1ccc2c(-c3ccccc3)cccc21 [Example 21, (1S,2R)-3-(methylamino)-1-phenyl-1-(4-phenyl-1H-indol-1-yl)propan-2-ol hydrochloride]
Human hNET
  inhibition at 1 µM: 56%
Human 5-HT2A receptor
  inhibition at 1 µM: 27%

## CNC[C@@H](O)[C@H](c1ccccc1)n1ccc2ccc(-c3ccccc3)cc21 [Example 22, (1S,2R)-3-(methylamino)-1-phenyl-1-(6-phenyl-1H-indol-1-yl)propan-2-ol hydrochloride]
Human hNET
  EC50: 35 nM
Human 5-HT2A receptor
  inhibition at 1 µM: 16%

## CNC[C@@H](O)[C@H](c1ccccc1)n1ccc2cccc(-c3ccccc3)c21 [Example 23, (1S,2R)-3-(methylamino)-1-phenyl-1-(7-phenyl-1H-indol-1-yl)propan-2-ol hydrochloride]
Human hNET
  inhibition at 1 µM: 48%
Human 5-HT2A receptor
  IC50: 2600 nM

## CNC[C@@H](O)[C@H](c1cccc(F)c1)n1ccc2cc(OCc3ccccc3)ccc21 [Example 24, (1S,2R)-1-[5-(benzyloxy)-1H-indol-1-yl]-1-(3-fluorophenyl)-3-(methylamino)propan-2-ol hydrochloride]
Human hNET
  EC50: 36 nM
Human 5-HT2A receptor
  inhibition at 1 µM: 20%

## CNC[C@@H](O)[C@H](c1ccccc1)N1CCc2cc(OCc3ccccc3)ccc21 [Example 26, (1S,2R)-1-[5-(benzyloxy)-2,3-dihydro-1H-indol-1-yl]-3-(methylamino)-1-phenylpropan-2-ol hydrochloride]
Human hNET
  EC50: 45 nM
Human 5-HT2A receptor
  inhibition at 1 µM: 23%

## CNC[C@@H](O)[C@H](c1ccccc1)N1C(=O)C2(CCCCC2)c2cc(Cl)ccc21 [Example 27, 5′-chloro-1′-[(1S,2R)-2-hydroxy-3-(methylamino)-1-phenylpropyl]spiro[cyclohexane-1,3′-indol]-2′(1′H)-one hydrochloride]
Human hNET
  EC50: 89 nM
Human 5-HT2A receptor
  IC50: 423 nM

## CNC[C@@H](O)[C@H](c1ccccc1)N1C(=O)C2(CCCCC2)c2ccc(Cl)cc21 [Example 28, 6′-Chloro-1′-[(1S,2R)-2-hydroxy-3-(methylamino)-1-phenylpropyl]spiro[cyclohexane-1,3′-indol]-2′(1′H)-one hydrochloride]
Human hNET
  EC50: 448 nM
Human 5-HT2A receptor
  IC50: 213 nM

## CNC[C@@H](O)[C@H](c1ccccc1)N1C(=O)C2(CCCCC2)c2ccc(F)cc21 [Example 29, 6′-fluoro-1′-[(1S,2R)-2-hydroxy-3-(methylamino)-1-phenylpropyl]spiro[cyclohexane-1,3′-indol]-2′(1′H)-one hydrochloride]
Human hNET
  EC50: 43 nM
Human 5-HT2A receptor
  IC50: 106 nM

## CNC[C@@H](O)[C@H](c1ccccc1)N1C(=O)C2(CCCCC2)c2cc(F)ccc21 [Example 30, 5′-fluoro-1′-[(1S,2R)-2-hydroxy-3-(methylamino)-1-phenylpropyl]spiro[cyclohexane-1,3′-indol]-2′(1′H)-one hydrochloride]
Human hNET
  EC50: 41 nM
Human 5-HT2A receptor
  IC50: 283 nM

## CNC[C@@H](O)[C@H](c1ccccc1)N1C(=O)C2(CCCCC2)c2cccc(Cl)c21 [Example 31, 7′-Chloro-1′-[(1S,2R)-2-hydroxy-3-(methylamino)-1-phenylpropyl]spiro[cyclohexane-1,3′-indol]-2′(1′H)-one hydrochloride]
Human hNET
  EC50: 32 nM
Human 5-HT2A receptor
  IC50: 203 nM

## CNC[C@@H](O)[C@H](c1cccc(F)c1)N1C(=O)C2(CCCCC2)c2ccc(F)cc21 [Example 32, 6′-fluoro-1′-[(1S,2R)-1-(3-fluorophenyl)-2-hydroxy-3-(methylamino)propyl]spiro[cyclohexane-1,3′-indol]-2′(1′H)-one hydrochloride]
Human hNET
  EC50: 43 nM
Human 5-HT2A receptor
  inhibition at 1 µM: 95%

## CNC[C@@H](O)[C@H](c1ccccc1)N1CC2(CCCCC2)c2ccccc21 [Example 33, (1S,2R)-3-(methylamino)-1-phenyl-1-spiro[cyclohexane-1,3′-indol]-1′(2′H)-ylpropan-2-ol hydrochloride]
Human hNET
  EC50: 29 nM
Human 5-HT2A receptor
  inhibition at 1 µM: 13%
